The source of these data is ChEMBL document CHEMBL5505991, “Novel sulfonamide-indolinone hybrids targeting mitochondrial respiration of breast cancer cells” (Eur J Med Chem, 2024).

The GI50 is the concentration at which growth is held to half of that of the control. A word on the inhibition: it is the relative decrease from the control value, in per cent. In general, IC50 refers to the concentration that inhibits the measured activity by half. Low values mean greater potency, high ones weaker potency. A word on the Ki: it is a measure of affinity in units of concentration, obtained from inhibition or displacement.

Calls of active or inactive are those of the source. The rule behind the calls is not given here.

The first series concerns MCF7. In words: Antiproliferative activity against human MCF7 cells assessed as cell growth at 10 uM incubated for 72 hrs by SRB assay relative to control. The series is classed as functional. Conditions: read-out: Activity. In general terms: Sulforhodamine B stains cellular protein and so reports cell mass.
As for `CC(=O)Nc1ccc(S(=O)(=O)Nc2ccc(-c3ccc4c(c3)NC(=O)/C4=C\c3ccc[nH]3)cc2)cc1`, the growth at 10 µM was 14.3%.
Still for that read-out and setting: to `O=C1Nc2cc(-c3ccc(NS(=O)(=O)c4ccc(Br)cc4)cc3)ccc2/C1=C/c1ccc[nH]1` belongs -77.4%; to `O=C1Nc2cc(-c3ccc(NS(=O)(=O)c4ccc([N+](=O)[O-])cc4)cc3)ccc2/C1=C/c1ccc[nH]1`, -23.6%.
Same read-out and setting: in the case of `CCN(CC)CCNC(=O)c1c(C)[nH]c(/C=C2\C(=O)Nc3cc(-c4ccc(NS(=O)(=O)c5ccc(F)c(Cl)c5)cc4)ccc32)c1C` it was -85.2%; in that of `O=C1Nc2cc(-c3ccc(NS(=O)(=O)c4ccc(-c5ccccc5)cc4)cc3)ccc2/C1=C/c1ccc[nH]1`, -25.2%.

For another series, the system named is MCF7. In words: Growth inhibition of human MCF7 cells incubated for 72 hrs by SRB assay.
Settings: not given
The series is classed as functional.
Molecule `O=C1Nc2cc(-c3ccc(NS(=O)(=O)c4ccc(Br)cc4)cc3)ccc2/C1=C/c1ccc[nH]1` displayed a GI50 of 31.6 nM.
In turn, `O=C1Nc2cc(-c3ccc(NS(=O)(=O)c4ccc([N+](=O)[O-])cc4)cc3)ccc2/C1=C/c1ccc[nH]1` yielded a concentration for 50% growth inhibition (GI50) of 1730 nM.
`O=C1Nc2cc(-c3ccc(NS(=O)(=O)c4ccc(-c5ccccc5)cc4)cc3)ccc2/C1=C/c1ccc[nH]1` showed a GI50 of 74.6 nM.

The subject of the next series is MDA-MB-468. Put plainly: Antiproliferative activity against human MDA-MB-468 cells assessed as cell growth at 10 uM incubated for 72 hrs by SRB assay relative to control. The series is classed as functional. Conditions: read-out: Activity.
As to `CC(=O)Nc1ccc(S(=O)(=O)Nc2ccc(-c3ccc4c(c3)NC(=O)/C4=C\c3ccc[nH]3)cc2)cc1`, the growth at 10 µM is -7.1%.
On the same count and under the same terms, to `O=C1Nc2cc(-c3ccc(NS(=O)(=O)c4ccc(Br)cc4)cc3)ccc2/C1=C/c1ccc[nH]1` belongs -66.9%; to `O=C1Nc2cc(-c3ccc(NS(=O)(=O)c4ccc([N+](=O)[O-])cc4)cc3)ccc2/C1=C/c1ccc[nH]1`, -29.6%; to `CCN(CC)CCNC(=O)c1c(C)[nH]c(/C=C2\C(=O)Nc3cc(-c4ccc(NS(=O)(=O)c5ccc(F)c(Cl)c5)cc4)ccc32)c1C`, -90.5%.
For the molecule `O=C1Nc2cc(-c3ccc(NS(=O)(=O)c4ccc(-c5ccccc5)cc4)cc3)ccc2/C1=C/c1ccc[nH]1`, the growth at 10 µM is -52.5%.

Another series relates to MDA-MB-468. Put plainly: Growth inhibition of human MDA-MB-468 cells incubated for 72 hrs by SRB assay.
Settings: not given
Format: functional.
`O=C1Nc2cc(-c3ccc(NS(=O)(=O)c4ccc(Br)cc4)cc3)ccc2/C1=C/c1ccc[nH]1` showed a GI50 of 25.4 nM.
The molecule `O=C1Nc2cc(-c3ccc(NS(=O)(=O)c4ccc([N+](=O)[O-])cc4)cc3)ccc2/C1=C/c1ccc[nH]1` yielded a GI50 of 778 nM.
On the same count and under the same terms, to `O=C1Nc2cc(-c3ccc(NS(=O)(=O)c4ccc(-c5ccccc5)cc4)cc3)ccc2/C1=C/c1ccc[nH]1` belongs 40.2 nM.

The test system of another series is T47D. Put plainly: Antiproliferative activity against human T47D cells assessed as cell growth at 10 uM incubated for 72 hrs by SRB assay relative to control. The series is classed as functional. Conditions: read-out: Activity.
For the molecule `CC(=O)Nc1ccc(S(=O)(=O)Nc2ccc(-c3ccc4c(c3)NC(=O)/C4=C\c3ccc[nH]3)cc2)cc1`, the growth at 10 µM stood at 20.7%.
As for `O=C1Nc2cc(-c3ccc(NS(=O)(=O)c4ccc(Br)cc4)cc3)ccc2/C1=C/c1ccc[nH]1`, the growth at 10 µM worked out at 9.33%.
On to `O=C1Nc2cc(-c3ccc(NS(=O)(=O)c4ccc([N+](=O)[O-])cc4)cc3)ccc2/C1=C/c1ccc[nH]1`, for which the growth at 10 µM amounted to 15.9%.
Same read-out and setting: to `CCN(CC)CCNC(=O)c1c(C)[nH]c(/C=C2\C(=O)Nc3cc(-c4ccc(NS(=O)(=O)c5ccc(F)c(Cl)c5)cc4)ccc32)c1C` belongs -49.1%.
In the case of `O=C1Nc2cc(-c3ccc(NS(=O)(=O)c4ccc(-c5ccccc5)cc4)cc3)ccc2/C1=C/c1ccc[nH]1`, the growth at 10 µM stood at 3.17%.

For the next series, the system named is T47D. Put plainly: Growth inhibition of human T47D cells incubated for 72 hrs by SRB assay. Format: functional.
Settings: not given
In turn, `O=C1Nc2cc(-c3ccc(NS(=O)(=O)c4ccc(Br)cc4)cc3)ccc2/C1=C/c1ccc[nH]1` gave a GI50 of 61.3 nM.
`O=C1Nc2cc(-c3ccc(NS(=O)(=O)c4ccc([N+](=O)[O-])cc4)cc3)ccc2/C1=C/c1ccc[nH]1` yielded a GI50 of 4770 nM.
In turn, `O=C1Nc2cc(-c3ccc(NS(=O)(=O)c4ccc(-c5ccccc5)cc4)cc3)ccc2/C1=C/c1ccc[nH]1` showed a GI50 of 136 nM.

For another series, the target named is T1, Aurora kinase B (Homo sapiens, UniProt Q96GD4). In words: Inhibition of Aurora B (unknown origin) at 100 nM by Z-LYTE assay relative to control.
T1 sequence (Q96GD4 whole entry): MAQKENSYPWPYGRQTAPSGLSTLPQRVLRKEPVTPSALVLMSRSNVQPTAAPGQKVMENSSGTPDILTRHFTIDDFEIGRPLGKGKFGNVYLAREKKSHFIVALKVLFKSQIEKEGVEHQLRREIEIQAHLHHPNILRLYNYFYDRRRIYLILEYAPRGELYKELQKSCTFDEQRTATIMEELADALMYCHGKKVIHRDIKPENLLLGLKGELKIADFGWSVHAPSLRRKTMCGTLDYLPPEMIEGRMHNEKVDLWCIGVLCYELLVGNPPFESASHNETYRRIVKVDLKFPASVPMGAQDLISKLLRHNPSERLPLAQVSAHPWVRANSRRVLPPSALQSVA
Settings: not given
On to `CC(=O)Nc1ccc(S(=O)(=O)Nc2ccc(-c3ccc4c(c3)NC(=O)/C4=C\c3ccc[nH]3)cc2)cc1`, for which the inhibition was 46%.
The molecule `O=C1Nc2cc(-c3ccc(NS(=O)(=O)c4ccc(Br)cc4)cc3)ccc2/C1=C/c1ccc[nH]1` registered an inhibition of 32%.
`O=C1Nc2cc(-c3ccc(NS(=O)(=O)c4ccc([N+](=O)[O-])cc4)cc3)ccc2/C1=C/c1ccc[nH]1`: the inhibition is 49%.
On the same count and under the same terms, to `CCN(CC)CCNC(=O)c1c(C)[nH]c(/C=C2\C(=O)Nc3cc(-c4ccc(NS(=O)(=O)c5ccc(F)c(Cl)c5)cc4)ccc32)c1C` belongs 90%; to `O=C1Nc2cc(-c3ccc(NS(=O)(=O)c4ccc(-c5ccccc5)cc4)cc3)ccc2/C1=C/c1ccc[nH]1`, 20%.

The next series relates to MCF7. In words: Inhibition of mitochondrial respiration in human MCF7 cells assessed as reduction in oxygen consumption rate at 20 uM incubated for 15 mins in presence of complex I.
Settings: not given
Format: functional, cell-based.
Regarding `CCN(CC)CCNC(=O)c1c(C)[nH]c(/C=C2\C(=O)Nc3cc(-c4ccc(NS(=O)(=O)c5ccc(F)c(Cl)c5)cc4)ccc32)c1C`, the inhibition entry was “Active”.

For the next series, the system named is MCF7. In words: Inhibition of mitochondrial respiration in human MCF7 cells assessed as reduction in oxygen consumption rate at 20 uM incubated for 15 mins in presence of complex II.
Settings: not given
The series is classed as functional, cell-based.
For `CCN(CC)CCNC(=O)c1c(C)[nH]c(/C=C2\C(=O)Nc3cc(-c4ccc(NS(=O)(=O)c5ccc(F)c(Cl)c5)cc4)ccc32)c1C`, the inhibition entry was “Active”.

Another series relates to MCF7. Put plainly: Inhibition of mitochondrial respiration in human MCF7 cells assessed as reduction in oxygen consumption rate at 20 uM incubated for 15 mins in presence of complex IV.
Settings: not given
The series is classed as functional, cell-based.
As to `CCN(CC)CCNC(=O)c1c(C)[nH]c(/C=C2\C(=O)Nc3cc(-c4ccc(NS(=O)(=O)c5ccc(F)c(Cl)c5)cc4)ccc32)c1C`, the inhibition result is “inactive”.

The test system of the next series is MCF7. Put plainly: Inhibition of mitochondrial respiration in human MCF7 cells assessed as reduction in oxygen consumption rate at 20 uM incubated for 15 mins. Format: functional, cell-based.
Settings: not given
With `CCN(CC)CCNC(=O)c1c(C)[nH]c(/C=C2\C(=O)Nc3cc(-c4ccc(NS(=O)(=O)c5ccc(F)c(Cl)c5)cc4)ccc32)c1C`, the inhibition result is “Active”.

In a further series the test system is MCF7. Put plainly: Inhibition of mitochondrial induced ROS production in human MCF7 cells assessed as reduction in H2O2 production rate at 20 uM incubated for 15 mins in presence of complex II by Amplex ultra red and horseradish peroxidase based fluorescence assay.
Settings: not given
Format: functional, cell-based.
With `CCN(CC)CCNC(=O)c1c(C)[nH]c(/C=C2\C(=O)Nc3cc(-c4ccc(NS(=O)(=O)c5ccc(F)c(Cl)c5)cc4)ccc32)c1C`, the inhibition result is “Active”.

Another series has as its system MCF7. In words: Induction of cell cycle arrest in human MCF7 cells assessed as accumulation of cells at G0/G1 phase at 5 to 7 uM measured after 24 hrs by PI staining based flow cytometry analysis. Format: functional. Conditions: dose 5-7 µM. (In general: Flow cytometry measures light scatter and fluorescence of single cells or particles in a stream.)
In the case of `CCN(CC)CCNC(=O)c1c(C)[nH]c(/C=C2\C(=O)Nc3cc(-c4ccc(NS(=O)(=O)c5ccc(F)c(Cl)c5)cc4)ccc32)c1C`, the result was Active.

Another series deals with H9c2. Put plainly: Cytotoxicity against rat H9c2 cells at upto 100 uM measured after 72 hrs by SRB assay. Conditions: h9c2, 72 h. Format: toxicity, cell-based.
As to `CCN(CC)CCNC(=O)c1c(C)[nH]c(/C=C2\C(=O)Nc3cc(-c4ccc(NS(=O)(=O)c5ccc(F)c(Cl)c5)cc4)ccc32)c1C`, the Activity entry is recorded as “Non-Toxic”.

A further series deals with BNL. Put plainly: Cytotoxicity against mouse BNL cells at upto 100 uM measured after 72 hrs by SRB assay. The series is classed as toxicity, cell-based.
Settings: not given
For `CCN(CC)CCNC(=O)c1c(C)[nH]c(/C=C2\C(=O)Nc3cc(-c4ccc(NS(=O)(=O)c5ccc(F)c(Cl)c5)cc4)ccc32)c1C`, the Activity entry is reported as “Non-Toxic”.

In another series the target is T1, Aurora kinase B. In words: Inhibition of Aurora B (unknown origin).
Settings: not given
Consider `O=C(Nc1ccc(-c2ccc3c(c2)NC(=O)/C3=C\c2ccc[nH]2)cc1)NC1CC1`, for which the IC50 was determined as 10.5 nM.

Another series addresses T1, Aurora kinase B. Put plainly: Binding affinity to Aurora B (unknown origin) assessed as inhibition constant.
Settings: not given
As for `O=C1Nc2cc(-c3ccc(O)cc3)ccc2/C1=C/c1ccc[nH]1`, the Ki was 19.9 nM.

In the next series the target is T1, Aurora kinase B. In words: Inhibition of Aurora B (unknown origin) at 100 nM relative to control.
Settings: not given
With `O=C1Nc2cc(-c3ccc(NS(=O)(=O)c4ccccc4)cc3)ccc2/C1=C/c1ccc[nH]1`, the inhibition is 66%.
